# From patent publication US9415047B2, “Use of benzo five-membered nitrogen heterocyclic piperazine or piperidine derivatives” (Liaoning Emmy Biological Pharmaceutical Co., Ltd., priority 2012, dated 2016)
# “Also recorded” adds a separate entry of the source.
# Legend:
# [1] = tested on: AD constricted rabbit aorta; assay: Relaxing effects on vascular smooth muscle constricted by adrenaline hydrochloride (AD) in vitro; conditions: Oryctolagus cuniculus; relaxation of rabbit aorta constricted by adrenaline (10^−5 mol/L); mean±SEM, n=5
# In short: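 Rabbit aortic strips in K-H solution precontracted with adrenaline hydrochloride (10^−5 mol/L) after a reproducible second contraction; compounds added cumulatively over ranges from 1×10^−10 up to 1×10^−2 mol/L depending on the compound series. Relaxation expressed as % of maximal relaxation versus −log concentration, mean±SEM, n=5.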
# [2] = tested on: NA constricted rabbit aorta; assay: Relaxing effects on vascular smooth muscle constricted by noradrenaline (NA) in vitro; conditions: Oryctolagus cuniculus; relaxation of rabbit aorta constricted by noradrenaline (10^−5 mol/L); mean±SEM, n=5
# In short: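 Rabbit aortic rings in K-H solution, pre-tested with adrenaline (10^−5 mol/L), washed and re-equilibrated 60 min, then constricted with noradrenaline (10^−5 mol/L). Compounds added cumulatively from 1×10^−10 up to 1×10^−2 or 1×10^−3 mol/L; relaxation expressed as % of maximal relaxation versus −log concentration (mean±SEM, n=5).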
# α1 receptor = assay: Antagonism of accumulative constriction of rabbit aorta by phenylephrine (α-receptor agonist); conditions: agonist (R)-phenylephrine
# Procedure: PE was also added by using the same method 15 min later. […] The curve was shown in FIG. 21 after positive drug doxazosine mesylate (10^−7 mol/L) was added.
# Calcium Channel (Ca^2+) = assay: Antagonism of accumulative constriction of rabbit aorta by CaCl2; conditions: calcium free high kalium depolarization
# Procedure: (§2) Rabbits were hit to be dizzy, with thoracic cavity quickly cut open, descending aorta exposed, connective tissues and surrounding fatty tissues (for hydroxytryptamine receptor antagonism test, endothelia should be removed with smooth stainless steel rod) removed, the aorta was cut into 3-5 mm vascular rings which were penetrated together with a steel wire with one end fixed on ventilation hook, another end on pressure tonotransducer. The aorta rings were put into a bath tube with 20 ml of nutritional solution, and the tension changes were recorded by using the recorder. The temperature of bath tube was maintained at 37±0.5° C., and mixed gas (95% O2+5% CO2) was ventilated at a rate of I-2 bubbles/second. The initial load of the sample was 1.5 g, nutritional solution was changed for every 20 min. The sample was balanced for 2 hours, and the experiment would be started when baseline became stable.
# After sample tension became stable, calcium K-H solution was used to flush the sample for 3 times, and incubated with calcium free K-H solution for 40 min. Calcium free high kalium solution was added into the sample for depolarization for 20 min, then CaCl2 (10^−6-10^−2 mol/L) was added into bath tube till maximal response was achieved, and then waveform was recorded. Then K-H solution was used to flush the sample repeatedly, the K-H solution was changed for every 20 min, and the sample was balanced for 60 min. […]
# After sample tension became stable, calcium K-H solution was used to flush the sample for 3 times, and incubated with calcium free K-H solution for 40 min. Calcium free high kalium solution was added into the sample for depolarization for 20 min, then CaCl2 (10^−6-10^−2 mol/L) was added into bath tube till maximal response was achieved, and then waveform was recorded. […] Calcium free high kalium solution was added into the sample for depolarization for 20 min, then amlodipine (10^−7 mol/L) was added into bath tube, which was incubated for 15 min, then CaCl2 (10^−6-10^−2 mol/L) was added by using the same method till maximal response was achieved, and then waveform was recorded. […]
# [3] = Experiment on acute toxicity; conditions: both sexes, Kunming, mouse, in vivo, mice
# Excerpt: Kunming mice (Experimental Animal Center, China Medical University) were used, half male and half female, 18-22 g, brief probability unit method was used to test the acute toxicity of the compound.
# Ten Kunming mice (Experimental Animal Center, China Medical University) were used, half male and half female, 18-22 g, brief probability unit method was used to test the acute toxicity of the compound.
# Kunming mice = assay: Marrow micronucleus test on mice; assay type: in vivo
# Procedure: Ten Kunming mice (Experimental Animal Center, China Medical University), half male and half female, were used. Compound II-2 was administered via gastric gavage at 120 mg/kg/day, and II-85 was administered to 74 mg/kg/day. The drug was administered for 4 days continuously. Marrow micronucleus test was performed on day 5.
# Mice in positive control group were administered cyclophosphane at 60 mg/kg/day. Mice in negative control group were administered normal saline at 0.1 ml/10 g/day. The drug was administered for 4 days continuously. Marrow micronucleus test was performed on day 5.
# The mice were killed by snapping neck, and then femur and sternum were excised, with blood and muscles removed, epiphysis cut off. Then marrow from sternum was squeezed to clean glassslide with bovine serum by using a pair of hemostatic forceps, or marrow on femur was flushed directly with bovine serum onto clean glassslide. Then the substance on glassslide were mixed well and smeared. Then the prepared and dried marrow smears were put into staining tank with methanol, fixed for 15 min, picked out to dry in the open air. After marrow smears were dried, it would be stained in freshly prepared Giemsa solution (1 volume of Giemsa stock solution and 9 volumes of pH 6.8 phosphate buffer) for 10 min, staining solution was flushed away with little stream. Then the smear was dried in the open air and observed under a microscope.
# SD rats = assay: Effects on blood pressure of SD rats anesthetized with urethane; assay type: in vivo; conditions: for diastolic blood pressure (DBP) / mean artery pressure (MAP) / systolic blood pressure (SBP): 1.5 mg/kg gastric gavage, n = 5
# Procedure: (§1) Four SD rats were anesthetized with urethane ([…]), after vital signs became stable, blood pressure was measured by common carotid intubation. After blood pressure became stable, compound II-2 was administered at 4.0 mg/kg via gastric gavage, blood pressure changes with time were observed and recorded.
# as §1, with “Five” for “Four”, “rats (provided by Experimental Animal Center, China Medical University)” for “rats”, “II-85” for “II-2”, “1.5” for “4.0”
# 5-HT2A receptor = 5-HT2A receptor (Oryctolagus cuniculus, UniProt G1SYA7); assay: Antagonism of accumulative constriction of rabbit aorta by 5-HT
# Sequence of 5-HT2A receptor (G1SYA7 1-469): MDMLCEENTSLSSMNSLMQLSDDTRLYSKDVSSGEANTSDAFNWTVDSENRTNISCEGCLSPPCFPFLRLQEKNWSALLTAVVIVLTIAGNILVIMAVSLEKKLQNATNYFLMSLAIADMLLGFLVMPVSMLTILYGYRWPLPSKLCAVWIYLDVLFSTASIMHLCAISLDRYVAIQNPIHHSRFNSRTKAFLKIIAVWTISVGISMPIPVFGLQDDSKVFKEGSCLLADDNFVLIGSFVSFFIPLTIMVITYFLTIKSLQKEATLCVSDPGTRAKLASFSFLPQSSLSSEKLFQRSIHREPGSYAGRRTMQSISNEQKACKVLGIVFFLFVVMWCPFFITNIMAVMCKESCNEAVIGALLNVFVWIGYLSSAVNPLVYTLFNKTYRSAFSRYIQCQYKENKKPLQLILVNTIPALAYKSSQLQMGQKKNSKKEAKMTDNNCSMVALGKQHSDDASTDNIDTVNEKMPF
# Procedure: as §2
# After sample tension became stable, a piece of waveform was recorded, 5-HT (10^−7-3×10^−4 mol/L) was added into the bath tube until maximal response, then waveform was recorded. […] 5-HT was also added by using the same method 20 min later. The maximal response was considered 100%, 5-HT constriction percentage was used as Y axis, negative logarithms of different concentrations of 5-HT were used as X axis to draw dose effective curve.
# After sample tension became stable, a piece of waveform was recorded, 5-HT (10^−8-10^−3 mol/L) was added into the bath tube until maximal response, then waveform was recorded. […] 5-HT was also added by using the same method 20 min later. The maximal response was considered 100%, 5-HT constriction percentage was used as Y axis, negative logarithms of different concentrations of 5-HT were used as X axis to draw dose effective curve (data were expressed in mean±SEM ( ? ), *P<0.05, **P<0.01, n=7).
# After sample tension became stable, a piece of waveform was recorded, 5-HT (10^−8-3×10^−4 mol/L) was added into the bath tube until maximal response, then waveform was recorded. […] 5-HT was also added by using the same method 20 min later. […]
smiles,measurement,setting,value
"Fc1ccc2c(C3CCN(CCCn4nnc5ccccc54)CC3)noc2c1 [II-85, N-(3-(1H-benzotriazole-1-yl)propyl)4-(3-(6-fluorobenzisoxazolyl))piperidine]",EC50,[1],50.1 nM
same,EC50,[2],30.9 nM
same,PA2 value to resist constriction of rabbit aorta by PE,α1 receptor,8.62±0.11
same,PA2 value to resist constriction of rabbit aorta by CaCl2,Calcium Channel (Ca^2+),6.10±0.13
same,LD50,"[3]; intraperitoneal, intraabdominal injection",108 mg/kg
same,LD50,"[3]; po, gastric gavage",222 mg/kg
same,marrow micronucleus test result,Kunming mice,negative
same,micronuclei cells in 1000 polychromatic erythrocytes,"Kunming mice; dosed 4 days, test on day 5, II-2 120, II-85 74, cyclophosphane 60 mg/kg/day",2.5±0.373%
same,diastolic blood pressure (DBP),SD rats; 0 min post dosing,103.06 mmHg
same,mean artery pressure (MAP),SD rats; 0 min post dosing,116.63 mmHg
same,systolic blood pressure (SBP),SD rats; 0 min post dosing,143.77 mmHg
same,diastolic blood pressure (DBP),SD rats; 15 min post dosing,75.36 mmHg
same,mean artery pressure (MAP),SD rats; 15 min post dosing,91.98 mmHg
same,systolic blood pressure (SBP),SD rats; 15 min post dosing,125.22 mmHg
same,diastolic blood pressure (DBP),SD rats; 30 min post dosing,68.68 mmHg
same,mean artery pressure (MAP),SD rats; 30 min post dosing,84.42 mmHg
same,systolic blood pressure (SBP),SD rats; 30 min post dosing,115.90 mmHg
same,diastolic blood pressure (DBP),SD rats; 60 min post dosing,75.49 mmHg
same,mean artery pressure (MAP),SD rats; 60 min post dosing,91.24 mmHg
same,systolic blood pressure (SBP),SD rats; 60 min post dosing,122.75 mmHg
same,diastolic blood pressure (DBP),SD rats; 90 min post dosing,83.32 mmHg
same,mean artery pressure (MAP),SD rats; 90 min post dosing,97.37 mmHg
same,systolic blood pressure (SBP),SD rats; 90 min post dosing,125.48 mmHg
same,diastolic blood pressure (DBP),SD rats; 120 min post dosing,83.71 mmHg
same,mean artery pressure (MAP),SD rats; 120 min post dosing,96.77 mmHg
same,systolic blood pressure (SBP),SD rats; 120 min post dosing,122.89 mmHg
same,diastolic blood pressure (DBP),SD rats; 150 min post dosing,95.06 mmHg
same,mean artery pressure (MAP),SD rats; 150 min post dosing,108.73 mmHg
same,systolic blood pressure (SBP),SD rats; 150 min post dosing,136.08 mmHg
same,diastolic blood pressure (DBP),SD rats; 180 min post dosing,86.22 mmHg
same,mean artery pressure (MAP),SD rats; 180 min post dosing,100.11 mmHg
same,systolic blood pressure (SBP),SD rats; 180 min post dosing,127.90 mmHg
same,diastolic blood pressure (DBP),SD rats; 210 min post dosing,97.96 mmHg
same,mean artery pressure (MAP),SD rats; 210 min post dosing,111.02 mmHg
same,systolic blood pressure (SBP),SD rats; 210 min post dosing,137.13 mmHg
same,diastolic blood pressure (DBP),SD rats; 240 min post dosing,102.84 mmHg
same,mean artery pressure (MAP),SD rats; 240 min post dosing,115.95 mmHg
same,systolic blood pressure (SBP),SD rats; 240 min post dosing,142.19 mmHg
same,time until blood pressures recovered to those before drug dosing,"SD rats; anesthetized SD rats, gastric gavage",6 h
same,oral absorption,SD rats; in vivo bulk testing on rats,good oral absorption
same,hypotensive effects,"SD rats; rats, gastric gavage",obvious hypotensive effects; also recorded: good hypotensive effects
same,Kb,5-HT2A receptor,0.871 nM
